One may read the inhibition as the percentage by which the read-out fell short of the control.

SMILES strings stand for the structures. Where two headings read alike, the source gives them in different places. Where only a bound is given, the exact number is not on record here.

Assay type in all cases: in vitro ADME
In data set [1] the test system is CYP2C8 and CYP2C9 versus seven other P450s (CYP1A2, 2A6, 2B6, 2C19, 2D6, 2E1, 3A). As to the kind of experiment: Nine-P450 cocktail inhibition in human liver microsomes, statements on the other P450 isoforms. As to conditions: human, pooled human liver microsomes; amodiaquine and diclofenac activities versus seven other P450s. On the procedure: (§1) The inhibitory potential of the five biflavonoids on the metabolism of nine P450 probe substrates was evaluated using previously developed methods with minor modifications. Biflavonoids were dissolved in methanol. The final concentration of methanol in the incubation mixture was 1.0% (v/v). We used these P450 probe substrates: phenacetin for CYP1A2, coumarin for CYP2A6, bupropion for CYP2B6, amodiaquine for CYP2C8, diclofenac for CYP2C9, omeprazole for CYP2C19, dextromethorphan for CYP2D6, chlorzoxazone for CYP2E1 and midazolam for CYP3A (Table 1). The incubation mixtures containing pooled human liver microsomes (HLMs, XTreme 200, XenoTech), P450 probe substrates, and inhibitor (0~20 µM) were pre-incubated at 37 °C for 5 min. The concentration range of the inhibitor varied (0, 0.002, 0.005, 0.02, 0.05, and 0.2 µM for CYP2C8; 0, 0.02, 0.05, 0.2, 0.5, and 2 µM for CYP2C9; 0, 0.5, 2, 5, 10, and 20 µM for other P450 isoforms). After pre-incubation, a reduced nicotinamide adenine dinucleotide phosphate (NADPH) generation system containing 1 unit/ml G6PDH, 1.3 mM β- nicotinamide adenine dinucleotide phosphate (β- NADP^+), 3.3 mM MgCl2, and 3.3 mM G6P was added to initiate a reaction, and further incubated for 10 min at 37 °C. The reaction was stopped by adding 50 μL of ice-cold acetonitrile containing 7 nM trimipramine (internal standard, IS). After centrifugation at 18,000 g (5 min, 4 °C), aliquots of supernatants were analyzed by LC–MS/MS (Shimadzu LCMS 8060 system, Shimadzu, Kyoto, Japan). All microsomal incubations were conducted in triplicate.
(§2) All metabolites and the IS were separated on a Kinetex XB-C18 column (100 × 2.10 mm, 2.6 μm, 100 Å; Phenomenex, Torrance, CA, USA) and analyzed using a Shimadzu LCMS 8060 triple-quadrupole mass spectrometer coupled with a Nexera X2 ultra high-performance liquid chromatography system (Shimadzu, Kyoto, Japan) equipped with an electrospray ionization interface. The mobile phase consisted of 0.1% formic acid in water (A) and 0.1% formic acid in acetonitrile (B). […] Electrospray ionization was performed in positive-ion mode at 4000 V or in negative-ion mode at −3500 V. The optimum operating conditions were determined as follows: vaporizer temperature, 300 °C; capillary temperature, 350 °C; collision gas (argon) pressure, 1.5 mTorr. Quantitation was conducted in selected reaction monitoring (SRM) modes with the precursor-to-product ion transition for each metabolite (Table 1 and Table 2).
(§3) We analyzed the data with Shimadzu LabSolution LC–MS software. The IC50 values were calculated by WinNonlin software (Pharsight, Mountain View, CA, USA). […]

Data set [2] has as its system other P450 isoforms (other than CYP2C8 and CYP2C9). The data set is described as above. The settings on record: human, pooled human liver microsomes; inhibitor 0.5 μM; HLMs; isoforms other than CYP2C8 and CYP2C9; read-out: Inhibition of the other P450 isoform-specific activities. Here is the method:
as §1, §2, §3

For data set [3], the target named is T1, CYP2C8 (Homo sapiens, UniProt P10632).
T1 sequence (P10632 1-490): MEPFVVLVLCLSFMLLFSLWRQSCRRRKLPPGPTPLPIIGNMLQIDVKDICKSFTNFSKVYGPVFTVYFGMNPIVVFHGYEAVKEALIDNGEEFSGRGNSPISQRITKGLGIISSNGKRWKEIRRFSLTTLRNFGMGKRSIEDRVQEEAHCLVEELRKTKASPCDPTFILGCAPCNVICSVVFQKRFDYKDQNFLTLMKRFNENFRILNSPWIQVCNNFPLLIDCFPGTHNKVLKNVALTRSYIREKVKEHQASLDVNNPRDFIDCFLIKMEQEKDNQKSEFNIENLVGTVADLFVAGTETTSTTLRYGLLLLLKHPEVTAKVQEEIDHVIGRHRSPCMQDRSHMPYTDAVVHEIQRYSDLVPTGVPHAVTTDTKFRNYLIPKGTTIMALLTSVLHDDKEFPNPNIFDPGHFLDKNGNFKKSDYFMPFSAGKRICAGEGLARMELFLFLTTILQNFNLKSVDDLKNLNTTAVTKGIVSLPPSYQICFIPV
In words: Time-dependent inhibition (IC50 shift) of CYP2C8, amodiaquine, human liver microsomes. More on the design: incubation mixtures containing pooled human liver microsomes (HLMs, XTreme 200, XenoTech); tissue XenoTech XTreme 200; host or cells: pooled human liver microsomes. Here is the method: The time-dependent inhibition of selamariscina A against CYP2C8 and CYP2C9 enzymes was evaluated using an IC50 shift method. Selamariscina A was pre-incubated at six concentrations (0, 0.002, 0.005, 0.02, 0.05, and 0.2 μM) with HLMs in the presence of an NDAPH generation system for 30 min at 37 °C. The reaction was initiated by adding 1 μM amodiaquine or 10 μM diclofenac and further incubated for 10 min. Incubation was terminated by adding 50 μL of ice-cold acetonitrile containing 7 nM trimipramine. After centrifugation, aliquots of supernatants were analyzed by LC–MS/MS.
All metabolites and the IS were separated on a Kinetex XB-C18 column (100 × 2.10 mm, 2.6 μm, 100 Å; Phenomenex, Torrance, CA, USA) and analyzed using a Shimadzu LCMS 8060 triple-quadrupole mass spectrometer coupled with a Nexera X2 ultra high-performance liquid chromatography system (Shimadzu, Kyoto, Japan) equipped with an electrospray ionization interface. The mobile phase consisted of 0.1% formic acid in water (A) and 0.1% formic acid in acetonitrile (B). The elution condition was set as 8% B (0–0.5 min), 8%→60% B (0.5–5 min), 60% B (5–6 min), 60%→8% B (6–6.1 min) and 8% B (6.1–9 min) for the analysis of metabolites of P450 probe substrates and set as 0%→40% B (0–1 min), 40%→50% B (1–5 min), 50%→0% B (5–5.1 min), and 0% B (5.1–8 min) for the analysis of metabolites of UGT probe substrates. The flow rate was 0.2 mL/min. Electrospray ionization was performed in positive-ion mode at 4000 V or in negative-ion mode at −3500 V. The optimum operating conditions were determined as follows: vaporizer temperature, 300 °C; capillary temperature, 350 °C; collision gas (argon) pressure, 1.5 mTorr. Quantitation was conducted in selected reaction monitoring (SRM) modes with the precursor-to-product ion transition for each metabolite (Table 1 and Table 2).
as §3
Background: Liver microsomes are vesicles of endoplasmic reticulum, rich in cytochrome P450 enzymes.

In data set [4] the test system is the other eight P450 enzymes (isoforms other than CYP2C8). In words: Nine-P450 cocktail inhibition in human liver microsomes, statements on the other P450 isoforms. As to conditions: human, pooled human liver microsomes; isoforms other than CYP2C8; HLMs. On the procedure:
as §1, §2, §3

The test system of data set [5] is other P450 isoforms. The description is as above. The settings on record: inhibitor 5 μM; HLMs. Here is the method:
as §1, §2, §3

As for `O=C1CC(c2cc(-c3c(O)ccc4c(=O)cc(-c5ccc(O)cc5)oc34)c(O)cc2O)Oc2cc(O)cc(O)c21` (stereo not shown) [selamariscina A], in data set [1], the selectivity ratio at 10 min is over 50. In addition, in data set [2], the inhibition at 10 min, 0.5 µM is at most 21.8%. For the same compound, the IC50 in data set [3] (30 min pre-incubation at 37 °C with NADPH generation system, read-out: IC50, CYP2C8 amodiaquine, HLMs pre-incubated with NADPH generation system) was 0.031 µM; in data set [3] (no NADPH pre-incubation, read-out: IC50, CYP2C8 amodiaquine, untreated HLMs) it was 0.019 µM. Besides, in data set [3] (IC50 shift method), the “Time-dependent inhibition of CYP2C8” value is recorded as “not a time-dependent inhibitor”.

In data set [4], `CC(C)(O)c1ccccc1CC[C@@H](SCC1(CC(=O)O)CC1)c1cccc(/C=C/c2ccc3ccc(Cl)cc3n2)c1` [montelukast, reference compound] registered an IC50 at 10 min of over 9.73 µM. Also, the “Inhibition of the other six P450 isoforms” value in data set [5] is “negligible inhibition”.

(Values after article PMC7238120, “Strong and Selective Inhibitory Effects of the Biflavonoid Selamariscina A against CYP2C8 and CYP2C9 Enzyme Activities in Human Liver Microsomes” (Pharmaceutics, 2020).)
